Measured values from patent publication US9895370B2, “Pharmaceutical composition for preventing or treating of cirrhosis of liver comprising G protein coupled receptor 119 ligand as an active ingredient” (DONGGUK UNIVERSITY INDUSTRY—ACADEMIC COOPERATION FOUNDATION, priority 2015, dated 2018).

Tested on: human HSC line LX-2
Assay: TGFβ1-inducible collagen I and TGFβ expression in LX-2
Type: cell-based
Settings: LX-2 treated with TGFβ1; FIGS. 2c, 2d
Protocol: A human HSC line (LX-2, Milipore, U.S.A.) was plated in a 6-well plate, and grown to confluency in DMEM supplemented with 1% penicillin-streptomycin (Hyclone, U.S.A.) and 2% fetal bovine serum (Hyclone, U.S.A.) at 37° C. in a 5% CO2 incubator. For a further experiment, the confluent HSC line was incubated in an FBS-free medium, instead of the 2% FBS-added medium.
Total RNA ([…]) extracted from cells using Trizol and a Maxime RT PreMix Kit (iNtRON Biotechnology, Gyeonggi-do, Korea) was used to obtain cDNA. For RT-PCR, a target gene was amplified by PCR using a Maxime™ PCR PreMix Kit according to the manufacturer's instructions, and subjected to electrophoresis in a 2% agrose gel, thereby identifying the amplified PCR product.
Meanwhile, for real-time RT-qPCR, the synthesized cDNA was assessed in a CFX Connect™ Real-Time PCR Detection System (Bio-Rad Laboratories, CA, USA) instrument using a SYBR green dye (Bio-Rad). The CP value of the gene was calibrated with the CP value of S 18r gene. Also, through a melting curve analysis, specificity of the amplified PCR product was confirmed.
Sodium dodecylsulfate-polyacrylamide gel electrophoresis (SDS-PAGE) was performed using a gel electrophoresis device (Mighty Small SE 250, Hoefer Scientific Instruments, San Francisco) according to the method established by the inventors. A lysed cell fraction was diluted with a sample dilution buffer [63 mM Tris (pH. 6.8), 10% glycerol, 2% SDS, 0.0013% bromophenol blue, 5% β-mercaptoethanol], and subjected to electrophoresis in an electrode buffer (15 g Tris, 72 g glycerin and 5 g SDS contained in an 1 L solution) using a 8-12% gel. After electrophoresis, the gel was transferred to a nitrocellulose membrane to transfer proteins using an electrophoresis device for transfer in a transfer buffer (25 mM Tris, 192 mM glycerin, 20% v/v methanol (pH. 8.3)] at 40 mA for 3 hours. The nitrocellulose membrane was reacted with first antibodies, reacted with horseradish peroxidase-conjugated goat anti-rabbit IgG and horseradish peroxidase-conjugated goat anti-mouse IgG as secondary antibodies for 1 hour, and visualized using an ECL chemiluminescence system (Amersham, Gaithesberg, Mass.).
A critical cytokine having an influence on the induction of liver fibrosis, TGFβ1, is a potent fibrosis stimulation factor for HSCs. To examine the expression of a liver fibrosis-inducing factor which was increased when the human liver cell line LX-2, cultured by method D was treated with TGFβ1, changes in expression according to the treatment with GPR119 ligands (MBX-2982, GSK1292263) were assessed by the methods described in G and H, thereby observing the effect of the GPR119 ligands.

Q: Which “expression of TGFβ1-inducible TGFβ” value does the source give for CC(C)c1noc(N2CCC(COc3ccc(-c4ccc(S(C)(=O)=O)cc4)nc3)CC2)n1 [GSK1292263, 3-isopropyl-5-(4-(((6-(4-(methylsulfonyl)phenyl)pyridin-3-yl)oxy)methyl)piperidin-1-yl)-1,2,4-oxadiazole] here?
A: inhibited

Q: What about the “expression of TGFβ1-inducible collagen I” value of the same compound?
A: inhibited
